In patent US20140370080A1, “HISTONE DEACETYLASE (HDAC) INHIBITORS FOR TREATMENT OF POST-SURGICAL ADHESIONS” (TRUSTEES OF BOSTON UNIVERSITY, priority 2011, published 2014):

What was measured:
[1] = test system: adhesion formation; assay: Ischemic button model of intraabdominal adhesion formation, adhesion scoring on postoperative day 7; type: in vivo, Male Wistar rats; details: for % Reduction (of adhesion formation vs control) / Mean adhesion formation (percentage of ischemic buttons with attached adhesions): rats, single intra-operative intraperitoneal dose (SAHA 50 mg/kg, MS-275 10 mg/kg); for % Reduction (of adhesion formation vs control): postoperative day 7; for Mean adhesion formation (percentage of ischemic buttons with attached adhesions): scored postoperative day 7, N=6; for treatment of surgical adhesions (result in words): single intra-operative dose, FIG. 4
Description: (§1) The surgical procedure described in Chu et al. (Surgery, 2011, 149(6): 801-812), content of which is herein incorporated by reference in its entirety, was used to test the HDAC inhibitors discussed herein. […] Adhesions were induced on the day of operation using our previously described ischemic button model. Animals were killed on postoperative day 7 for adhesion scoring. The effect of the HDAC inhibitors on intestinal wound healing was measured using colonic anastomotic burst pressures.
Male Wistar rats (range, 200-225 g; Charles River Laboratories, Wilmington, Mass.) warehoused at constant room temperature and under 12-hour light/12-hour dark cycles and allowed access to food and water ad libitum. The Institutional Animal Care and Use Committee at the Boston University School of Medicine approved this study, and all procedures described were performed in accordance with recommendations outlined in the Guide for the Care and Use of Laboratory Animals: Eighth Edition (NRC 2011) published by the National Academies of Science.
Intraperitoneal ischemic buttons were created as described in Reed et al. (J. Surgical Res., 2002, 108:165-172), content of which is herein incorporated by reference in its entirety. In brief, after a midline laparotomy, 6 ischemic buttons (3 on each side) were created by ligating 5 mm of parietal peritoneum with 4-0 silk suture. Adhesion formation was quantified in a blinded fashion on postoperative day 7 by scoring the percentage of buttons with attached fibrinous adhesions in each rat. For example, an animal that had adhesions attached to 4 of its 6 ischemic buttons received a score of 66%.

[2] = test system: anastomotic wound healing; assay: Colonic anastomotic burst pressure (intestinal wound healing); type: in vivo, Male Wistar rats; details: 50 mg/kg intraperitoneally, single intra-op dose, at 7 days, FIG. 3B
Description: as §1
In the final experiment, the inventors tested the effects of intraperitoneal HDAC inhibitors on anastomotic wound healing. Male Wistar rats were randomized to operative controls (OP Control) or operative treatment with HDAC inhibitor as noted in the figure. […] In brief, after laparotomy and division of the distal colon, an end-to-end colonic anastomosis was created using a single running layer of 7-0 polypropylene suture. Animals were killed 7 days postoperatively and, after removing a 4-cm segment containing the anastomosis, the segment underwent measurements of burst pressure as described in Aarons et al. (Annals of Surgery, 2007, 245(2): 176-184), content of which is incorporated herein by reference in its entirety.

SMILES | % Reduction (of adhesion formation vs control) [1] | Mean adhesion formation (percentage of ischemic buttons with attached adhesions) [1] | treatment of surgical adhesions (result in words) [1] | adhesion formation ([1]; 25 mg/kg, three doses (pre-op, intra-op and pre-op), FIG. 2A) | adhesion formation ([1]; 50 mg/kg intraperitoneally, 3 doses (24 hr pre-op, intra-op, 24 hrs post-op), at 7 days, FIG. 1B) | adhesion formation ([1]; 50 mg/kg intraperitoneally, single intra-op dose, at 7 days, FIG. 2A) | adhesion formation ([1]; 100 mg/kg intraperitoneally, 3 doses (24 hr pre-op, intra-op, 24 hrs post-op), at 7 days, FIG. 1A) | adhesion formation ([1]; 200 mg/kg intraperitoneally, 3 doses (24 hr pre-op, intra-op, 24 hrs post-op), FIG. 1A) | anastomotic wound healing (burst pressure) [2]
O=C(CCCCCCC(=O)Nc1ccccc1)NO [SAHA, suberoylanlide hydroxamic acid] | 48.39% | 44.4444% | effective | – | – | – | – | – | –
Nc1ccccc1NC(=O)c1ccc(CNC(=O)OCc2cccnc2)cc1 [MS-275] | 45.16% | 47.2222% | effective | – | – | – | – | – | –
CCCC(CCC)C(=O)O [valproic acid] | – | – | – | effective | significantly reduced | significantly reduced | significantly reduced | effective | did not affect
